As a reminder, the IC50 is the concentration needed to halve the response being measured.

The values below come from ChEMBL document CHEMBL1154938 (Bioorg Med Chem Lett, 2010).

The target of assay [1] is C-C chemokine receptor type 5 (Homo sapiens, UniProt P51681). Briefly: Displacement of […] from human CCR5 receptor coexpressed with Galphai6 in CHO cells after 2 hrs by scintillation counting. It counts as cell-based.
The test system of assay [2] is Human immunodeficiency virus 1. The experiment in a line: Antiviral activity against CCR5-tropic recombinant HIV1 NLBal virus infected in JC53-BL cells assessed as inhibition of viral replication after 3 days by luciferase reporter gene assay. It counts as functional, organism-based. Conditions: Human immunodeficiency virus 1, NLBal, JC53BL, 72 h. Background: A reporter such as luciferase makes a cellular process visible.

C-C chemokine receptor type 5, sequence (P51681 whole entry): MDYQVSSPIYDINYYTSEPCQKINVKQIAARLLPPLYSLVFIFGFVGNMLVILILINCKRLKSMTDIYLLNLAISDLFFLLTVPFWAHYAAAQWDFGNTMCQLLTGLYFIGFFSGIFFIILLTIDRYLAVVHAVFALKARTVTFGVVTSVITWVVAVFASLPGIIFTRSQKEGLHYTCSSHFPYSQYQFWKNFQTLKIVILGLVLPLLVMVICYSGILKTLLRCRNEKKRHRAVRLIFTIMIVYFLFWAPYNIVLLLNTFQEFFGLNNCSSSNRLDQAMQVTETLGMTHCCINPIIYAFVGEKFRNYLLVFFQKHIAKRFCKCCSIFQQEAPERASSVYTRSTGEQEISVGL

For the molecule `Cc1nnc(C)n1[C@@H]1C[C@@H]2CN(CC[C@H](NC(=O)C3CC(F)(F)C3)c3cccc(F)c3)C[C@@H]2C1`, the IC50 in assay [1] came out at 6 nM; in assay [2] it was 74 nM.

In the case of `Cc1nnc(C)n1[C@H]1C[C@H]2CC[C@@H](C1)N2CC[C@H](NC(=O)C1CCC(F)(F)CC1)c1cccc(F)c1`, the IC50 in assay [1] and in assay [2] was 5 nM throughout.

Consider `Cc1nnc(C)n1[C@@H]1C[C@@H]2CN(CC[C@H](NC(=O)C3CCOCC3)c3cccc(F)c3)C[C@@H]2C1`, for which the figures for the IC50 in assay [1] and in assay [2] were 30 nM and no less than 625 nM, respectively.

As for `Cc1nnc(C)n1[C@H]1C[C@H]2CC[C@@H](C1)N2CC[C@H](NC(=O)C1CCOCC1)c1cccc(F)c1`, the IC50 in assay [1] is 13 nM; in assay [2], 220 nM.

With `Cc1nnc(C)n1[C@@H]1C[C@@H]2CN(CC[C@H](NC(=O)C3CCC(F)(F)CC3)c3cccc(F)c3)C[C@@H]2C1`, the IC50 in assay [1] was 8 nM; in assay [2], 41 nM.

In the case of `Cc1nnc(C)n1[C@H]1C[C@@H]2CN(CC[C@H](NC(=O)C3CCOCC3)c3cccc(F)c3)C[C@@H]2C1`, the IC50 is 43 nM in assay [1] and no less than 625 nM in assay [2].

For `Cc1nnc(C)n1[C@@H]1C[C@@H]2CN(CC[C@H](NC(=O)C3CCOC3)c3cccc(F)c3)C[C@@H]2C1` (some centres not stated), the IC50 in assay [1] amounted to 18 nM; in assay [2], 210 nM.

For `Cc1nnc(C)n1C1CCN(CC[C@H](NC(=O)C2CCOC2)c2cccc(F)c2)CC1` (some centres not stated), the IC50 in assay [2] was no less than 625 nM.

For `Cc1nnc(C(C)C)n1[C@H]1C[C@H]2CC[C@@H](C1)N2CC[C@H](NC(=O)C1CCC(F)(F)CC1)c1ccccc1` [MARAVIROC], in assay [2], the IC50 was determined as 2.8 nM.

Consider `Cc1nnc(C)n1[C@H]1C[C@H]2CC[C@@H](C1)N2CC[C@H](NC(=O)C1CC(F)(F)C1)c1cccc(F)c1`, for which the IC50 was determined as 5 nM in assay [1] and 24 nM in assay [2].

On to `Cc1nnc(C)n1[C@H]1C[C@@H]2CN(CC[C@H](NC(=O)C3CCC(F)(F)CC3)c3cccc(F)c3)C[C@@H]2C1`, for which the IC50 in assay [2] amounted to 81 nM.

Take `Cc1nnc(C)n1C1CCN(CC[C@H](NC(=O)C2CCC(F)(F)CC2)c2cccc(F)c2)CC1`: the IC50 is 38 nM in assay [1] and no less than 625 nM in assay [2].

Turning to `Cc1nnc(C)n1[C@H]1C[C@@H]2CN(CC[C@H](NC(=O)C3CC(F)(F)C3)c3cccc(F)c3)C[C@@H]2C1`, the half-inhibitory concentration (IC50) in assay [1] was found to be 6 nM; in assay [2], 200 nM.

`Cc1nnc(C)n1[C@H]1C[C@H]2CC[C@@H](C1)N2CC[C@H](NC(=O)C1CCOC1)c1cccc(F)c1` (some centres not stated): the IC50 in assay [1] came to 7 nM; in assay [2] it was 62 nM.

For the molecule `Cc1nnc(C)n1[C@H]1C[C@@H]2CN(CC[C@H](NC(=O)C3CCOC3)c3cccc(F)c3)C[C@@H]2C1` (some centres not stated), the IC50 in assay [1] was found to be 35 nM; in assay [2], 40 nM.
